What all share (assay type): physicochemical
Data set [1] can be described thus: Characterizability (passes profile; moisture content after air equilibration). Conditions: for Characterizability (passes profile): Table I.
Another data set is described as follows: Water solubility. As to conditions: for Water solubility: in words.
A short description of data set [2]: Trichlorotrifluoroethane solubility. As to the method:
The solubility of the compounds in trichlorotrifluoroethane, a high molecular weight fluorochlorinated alkane liquid propellant, was determined as follows. Suspensions of each compound were prepared at concentrations of ~1 mg/ml in trichlorotrifluoroethane in 30 ml glass vials sealed using polytetrafluoroethylene lined caps. These vials were wrapped with aluminum foil and shaken at ~25° C. After 26 days shaking the samples were filtered. Three successive 5 ml fractions were collected from the filter and analyzed to test for adsorption. (No adsorption was observed.)
The 5 ml samples were transferred to 5 ml volumetric flasks and solvent was evaporated under nitrogen. The residue was redissolved in 1 ml methanol and diluted to 5 ml with 30% CH3 CN. Samples were assayed by high pressure liquid chromatography.

A further data set can be described thus: Solid-state stability. Conditions: for Solid state stability (degradation): 2 months at 33° C., 87600 min; for Solid-state stability (visual observation): 75% R.H., 30°, same = as at day 0. As to the method:
(§1) The solid-state stability studies were performed as follows. Approximately 10-15 mg of the free acid or a salt was placed in either clear glass vials or amber vials wrapped in aluminum foil and stored under various conditions as listed below:
(a) Refrigerated at about 4° C. (dark).
(b) High Intensity Light Box at about 33° C. and relative humidity <15%. (Light Box contained 6-15 watt fluorescent bulbs 41/2 inches above the powder surface.) Sample vials were placed on their sides with powder spread evenly on the vial wall.
(c) 30° C./75% relative humidity/dark-vials were capped loosely.
(§2) At various times, 1-1.5 mg samples were dissolved in methanol, diluted to a prescribed volume with water, and analyzed by high pressure liquid chromatography versus reference standard of the free acid stored at -20° C. Chromatographic conditions were similar to those described previously.

Data set [3] can be described thus: Stability suspended in trichlorotrifluoroethane. Conditions: dark, 30°. How it is done: as §1
(d) Suspended in […] and shaken continuously for 26 days.
as §2

The nature of data set [4]: Specific gravity (volume displacement, pycnometer). As to conditions: 20° C., acetonitrile. How it is done:
To obtain specific gravity data approximate densities were obtained using a volume displacement procedure. To a 5 ml weighed pycnometer was added 200-300 mg of salt and acetonitrile added to fill. The salt suspensions were sonicated to remove entrapped air and equilibrated to 20° C. in a water bath. The salt densities were estimated by standard methods of calculation.

≈ marks a conversion by molar mass, not a printed value. Structures can show the parent of a compound that is named as a salt.

As usually defined, the solubility is the dissolved amount per volume that the medium holds.

For the compound `CCCCC[C@H](O)/C=C/[C@@H]1c2cc(CCCCC(=O)O)n(-c3ccccc3)c2C[C@H]1O` [Free Acid, 6,9-deepoxy-6,9-(phenylimino)-Δ6,8-prostaglandin I1, reference compound], in data set [1], the “Characterizability (passes profile)” value is “Pass”. The compound also showed a solubility in the data set “Water solubility” (water, Table I, numeric) of 1 µg/mL (≈ 2.35 µM). Also, the solubility at 624 h in data set [2] (trichlorotrifluoroethane, organic solvent or mixture, ~25° C., 26 days shaking) is 0.38 µg/mL (≈ 0.893 µM). The “Solid state stability (degradation)” value in the data set “Solid-state stability” is greater than 10%. For the same compound, the Solid-state stability is 100% of Theory in the data set “Solid-state stability” (Dark, 33°, 0 days); 98% of Theory in the data set “Solid-state stability” (Dark, 33°, 19 days, 27360 min); 65% of Theory in “Solid-state stability” (Dark, 33°, 189 days, 272160 min); 46% of Theory in the data set “Solid-state stability” (Dark, 33°, 289 days, 416160 min); 19% of Theory in the data set “Solid-state stability” (Dark, 33°, 405 days, 583200 min); 100% of Theory in the data set “Solid-state stability” (High intensity light, 33°, relative humidity <15%, 0 days). Also, the Solid-state stability in the data set “Solid-state stability” (High intensity light, 33°, relative humidity <15%, 19 days, 27360 min) is listed as 55% of Theory. Also, the “Solid-state stability (visual observation)” value in “Solid-state stability” (Dark, 19 days) is recorded as “same”. Besides, the remaining at 960 h in the data set “Solid-state stability” (solid state, Dark, 33°, 40 days) was determined as 94%. For the same compound, in the data set “Solid-state stability” (solid state, Dark, 33°, 66 days), the remaining at 1584 h was 89%. Besides, the “Stability in trichlorotrifluoroethane suspension” value in data set [3] (0 days) is on record as 100% of Theory. In addition, in data set [3] (trichlorotrifluoroethane, 26 days, read-out: Stability in trichlorotrifluoroethane suspension), the remaining at 624 h stood at 94%.
Take `CCCCC[C@H](O)/C=C/[C@@H]1c2cc(CCCCC(=O)O)n(-c3ccccc3)c2C[C@H]1O` [Potassium Salt, 6,9-Deepoxy-6,9-(phenylimino)-Δ6,8-prostaglandin I1, potassium salt]: the “Characterizability (passes profile)” value in data set [1] (potassium salt) is given as “Pass”. Moreover, the “moisture content after air equilibration” value in data set [1] (potassium salt) is “.42 % H2O”. Also, the Water solubility result in “Water solubility” (listed as potassium salt, potassium salt) is “high water solubility”; in the data set “Water solubility” (potassium salt), “Soluble”. The “Solubility in fluorinated and fluorochlorinated liquified propellants” value in data set [2] (as compared to the free acid, in words) was “low solubility in fluorinated and fluorochlorinated liquified propellants”. For the same compound, the Trichlorotrifluoroethane solubility in data set [2] (~25° C., 26 days shaking, potassium salt, 37440 min) amounted to 0.43 µg/mL. Further, the “Solid state stability (degradation)” value in “Solid-state stability” (potassium salt) is less than 2%. The Solid-state stability in “Solid-state stability” (Dark, 4°, 0 days, potassium salt) is listed as 100% of Theory; in “Solid-state stability” (Dark, 33°, 0 days, potassium salt), 100% of Theory; in the data set “Solid-state stability” (Dark, 33°, 19 days, potassium salt, 27360 min), 100% of Theory; in the data set “Solid-state stability” (Dark, 33°, 40 days, potassium salt, 57600 min) it was 100% of Theory; in “Solid-state stability” (Dark, 33°, 66 days, potassium salt, 95040 min), 100% of Theory; in “Solid-state stability” (Dark, 33°, 289 days, potassium salt, 416160 min), 96% of Theory. Further, the Solid-state stability in the data set “Solid-state stability” (Dark, 33°, 405 days, potassium salt, 583200 min) is on record as 96% of Theory; in “Solid-state stability” (High intensity light, 33°, relative humidity <15%, 0 days, potassium salt) it was 100% of Theory; in “Solid-state stability” (High intensity light, 33°, relative humidity <15%, 19 days, potassium salt, 27360 min) it was 48% of Theory; in “Solid-state stability” (in words, over the free acid or the sodium salt), “improved solid-state stability over the free acid or the sodium salt”. Also, the “Solid-state stability (visual observation)” value in the data set “Solid-state stability” (Dark, 19 days, potassium salt) is given as “glass”. In addition, the “Rank order of stability” value in “Solid-state stability” (protected from light, 33°) is given as “potassium salt>free acid>sodium salt”. In addition, in “Solid-state stability” (solid state, Dark, 4°, 66 days), the remaining at 1584 h is 102%. Moreover, the remaining at 4536 h in “Solid-state stability” (solid state, Dark, 4°, 189 days) was 101%. The remaining at 2400 h in “Solid-state stability” (solid state, Dark, 33°, 100 days) turned out to be 97%. Also, the remaining at 5184 h in “Solid-state stability” (solid state, Dark, 33°, 216 days) worked out at 98%. Besides, the Specific gravity in data set [4] (potassium salt) came out at 1.20. For the same compound, the “Stability in trichlorotrifluoroethane suspension” value in data set [3] (26 days, potassium salt, 37440 min) is reported as 100% of Theory.
Take `CCCCC[C@H](O)/C=C/[C@@H]1c2cc(CCCCC(=O)O)n(-c3ccccc3)c2C[C@H]1O` [Sodium Salt, 6,9-Deepoxy-6,9-(phenylimino)-Δ6,8-prostaglandin I1, sodium salt]: in data set [1] (sodium salt), the “Characterizability (passes profile)” value is listed as “Initial analysis acceptable but later assays (HPLC) unacceptable”. Further, in data set [1] (sodium salt), the “moisture content after air equilibration” value is recorded as “.82 % H2O”. Besides, the Water solubility result in the data set “Water solubility” (sodium salt) is on record as “Soluble”. In addition, the “Solid state stability (degradation)” value in the data set “Solid-state stability” (sodium salt) was greater than 50%. The Solid-state stability is given as 101% of Theory in the data set “Solid-state stability” (Dark, 4°, 0 days, sodium salt); 101% of Theory in “Solid-state stability” (Dark, 33°, 0 days, sodium salt); 61% of Theory in the data set “Solid-state stability” (Dark, 33°, 19 days, sodium salt, 27360 min); 101% of Theory in “Solid-state stability” (High intensity light, 33°, relative humidity <15%, 0 days, sodium salt); 3% of Theory in the data set “Solid-state stability” (High intensity light, 33°, relative humidity <15%, 19 days, sodium salt, 27360 min). For the same compound, in “Solid-state stability” (Dark, 19 days, sodium salt), the “Solid-state stability (visual observation)” value is recorded as “same”. Also, in “Solid-state stability” (solid state, Dark, 4°, 19 days), the remaining at 456 h was found to be 87%. The remaining at 1104 h in “Solid-state stability” (solid state, Dark, 4°, 46 days) was 77%. Further, the Specific gravity in data set [4] (sodium salt) was found to be 1.18.

For the origin of these results see US4666934A, “Prostaglandin analogs” (The Upjohn Company, priority 1985, dated 1987).
